Test results published in BindingDB's records for patent US20230399327 (Adlai Nortye Biopharma Co., 2023).

Each compound was assayed against Mitogen-activated protein kinase kinase kinase kinase 1 (Homo sapiens, UniProt Q92918) (assay: Detection of Compound's Ability to Inhibit HPK1 Kinase Activity Assay).
Sequence of Mitogen-activated protein kinase kinase kinase kinase 1 (Q92918 whole entry): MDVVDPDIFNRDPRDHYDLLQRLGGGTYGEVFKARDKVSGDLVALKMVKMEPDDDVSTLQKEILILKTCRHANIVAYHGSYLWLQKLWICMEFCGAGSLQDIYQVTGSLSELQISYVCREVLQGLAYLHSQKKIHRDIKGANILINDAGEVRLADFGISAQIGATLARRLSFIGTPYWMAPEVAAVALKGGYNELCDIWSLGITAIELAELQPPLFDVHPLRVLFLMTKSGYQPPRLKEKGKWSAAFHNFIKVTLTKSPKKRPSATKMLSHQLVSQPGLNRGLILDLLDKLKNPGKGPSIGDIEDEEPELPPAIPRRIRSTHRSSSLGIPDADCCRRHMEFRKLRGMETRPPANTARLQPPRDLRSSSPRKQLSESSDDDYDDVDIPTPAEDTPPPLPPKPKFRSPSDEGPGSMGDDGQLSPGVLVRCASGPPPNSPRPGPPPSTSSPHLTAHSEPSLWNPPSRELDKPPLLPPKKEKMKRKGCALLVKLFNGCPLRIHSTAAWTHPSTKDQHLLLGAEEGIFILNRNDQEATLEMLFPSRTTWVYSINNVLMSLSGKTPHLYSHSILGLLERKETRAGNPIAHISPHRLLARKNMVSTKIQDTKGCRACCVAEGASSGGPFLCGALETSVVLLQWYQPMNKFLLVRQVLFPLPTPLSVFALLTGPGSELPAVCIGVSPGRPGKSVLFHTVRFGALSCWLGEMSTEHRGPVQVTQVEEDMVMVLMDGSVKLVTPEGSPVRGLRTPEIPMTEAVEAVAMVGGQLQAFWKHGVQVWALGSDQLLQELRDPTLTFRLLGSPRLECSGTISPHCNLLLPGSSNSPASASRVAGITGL
Experimental: The specific operation is as follows: configure the enzymatic reaction system buffer (10 mM MOPS, pH 7.2, 5 mM β-glycerol-phosphate, 10 mM MgCl2, 0.8 mM EDTA, 2 mM EGTA, 0.1 mM DTT); the test compound (1 mM the compound stock solution in DMSO) was diluted with buffer to the highest concentration of 60 uM (containing 6% DMSO), and the compound with a concentration of 60 μM was initially diluted 5 times with a buffer containing 6% DMSO for a total of 8 points of gradient concentration; then dilute HPK1 kinase to 30 nM in buffer. Add 2 μl of HPK1 kinase diluent to each well of a Greiner 384-well microplate (Cat. No. 784075), and add 2 μl of buffer to the control well; add 1 μl of the diluted compound to the reaction well after brief centrifugation, and add 1 μl buffer solution containing 6% DMSO to the control well; after short centrifugation, place in a 25° C. constant temperature incubator (Shanghai Yiheng Scientific Instrument Co., Ltd., Cat. No.: LRH-150) and incubate for 20 minutes. Add 3 μl of reaction substrate (10 μM MBP and 20 μM ATP dissolved in distilled water) to each well, briefly centrifuge and incubate in a constant temperature incubator at 25° C. for 60 min, and use ADP-Glo Kinase Assay Kit to detect the enzymatic reaction activity, ADP-Glo Kinase Assay Kit detection is carried out according to the operating instructions of the kit. Data are described using the half maximal inhibitory
Compound COc1nc2c(cc1Nc1ncc3cccc(-c4ccccc4)c3n1)CN(C)CC2 [US20230399327, Example 1] has an IC50 of less than 0.1 nM.
In the case of COc1nc2c(cc1Nc1ncc3cccc(-c4cnn5ccccc45)c3n1)CN(C)CC2 [US20230399327, Example 2], the IC50 is reported as less than 0.1 nM.
Work on COc1nc2c(cc1Nc1ncc3ccnc(C4=CCOCC4)c3n1)CN(C)CC2 [US20230399327, Example 26] yielded an IC50 of 8.31 nM.
CN1CCc2[nH]c(=O)c(Nc3ncc4ccnc(NCC(C)(C)CO)c4n3)cc2C1 [US20230399327, Example 70] showed an IC50 of 0.29 nM.
Work on CN1CCc2[nH]c(=O)c(Nc3ncc4ccnc(N5CCSCC5)c4n3)cc2C1 [US20230399327, Example 72] yielded an IC50 of 21.2 nM.
CN1CCc2[nH]c(=O)c(Nc3ncc4ccnc(N5CCCCCC5)c4n3)cc2C1 [US20230399327, Example 73] gave an IC50 of 0.41 nM.
C[C@@H]1CCCCN1c1nccc2cnc(Nc3cc4c([nH]c3=O)CCN(C)C4)nc12 [US20230399327, Example 76] was tested, and the IC50 was less than 0.1 nM.
Work on CN1CCc2[nH]c(=O)c(Nc3ncc4ccnc(NCC5(C)CC5)c4n3)cc2C1 [US20230399327, Example 77] yielded an IC50 of less than 0.1 nM.
CN1CCc2c(cc(Nc3ncc4ccnc(N5CCC(F)(F)CC5)c4n3)c(=O)n2C)C1 [US20230399327, Example 79] gave an IC50 of less than 0.1 nM.
Compound CN1CCc2c(cc(Nc3ncc4ccnc(N5CCC(F)(F)C5)c4n3)c(=O)n2C)C1 [US20230399327, Example 85] has an IC50 of 25.3 nM.
For CCOc1nc2c(cc1Nc1ncc3ccnc(N[C@H](CO)C(C)C)c3n1)CN(C)CC2 [US20230399327, Example 89], the IC50 was less than 0.1 nM.
With COc1nc2c(cc1Nc1ncc3ccnc(N[C@H](CO)C(C)C)c3n1)CN(C)CC2 [US20230399327, Example 91] the IC50 was 21.5 nM.
Compound CCOc1nc2c(cc1Nc1ncc3ccnc(N[C@@H]4CCC[C@H]4O)c3n1)CN(C)CC2 [US20230399327, Example 95] has an IC50 of 18.1 nM.
Work on CCOc1nc2c(cc1Nc1ncc3ccnc(N[C@H]4CC[C@@H](O)C4)c3n1)CN(C)CC2 [US20230399327, Example 98] yielded an IC50 of 0.44 nM.
In the case of COc1nc2c(cc1Nc1ncc3ccnc(N4CCC[C@H]4CO)c3n1)CN(C)CC2 [US20230399327, Example 101], the IC50 is reported as less than 0.1 nM.
In the case of CCOc1nc2c(cc1Nc1ncc3ccnc(N4CCC[C@H]4CO)c3n1)CN(C)CC2 [US20230399327, Example 106], the IC50 is reported as 15.4 nM.
With COc1nc2c(cc1Nc1ncc3ccnc(N4CC(F)(F)C[C@H]4CO)c3n1)CN(C)CC2 [US20230399327, Example 108] the IC50 was less than 0.1 nM.
In the case of COc1nc2c(cc1Nc1ncc3ccnc(NC(C)(C)CO)c3n1)CN(C)CC2 [US20230399327, Example 109], the IC50 is reported as less than 0.1 nM.
Compound CC[C@H](CO)Nc1nccc2cnc(Nc3cc4c(nc3OC)CCN(C)C4)nc12 [US20230399327, Example 110] has an IC50 of less than 0.1 nM.
In the case of COc1nc2c(cc1Nc1ncc3ccnc(NCC(C)(C)O)c3n1)CN(C)CC2 [US20230399327, Example 111], the IC50 is reported as less than 0.1 nM.
Compound COc1cc2c(cc1Nc1ncc3ccnc(N[C@@H](CO)C(C)C)c3n1)CN(C)CC2 [US20230399327, Example 112] has an IC50 of less than 0.1 nM.
